Data on 7 molecules can be found in paper PMC11818225, “Multifaceted Sulfonamide-Derived Thiosemicarbazones: Combining Metal Chelation and Carbonic Anhydrases Inhibition in Anticancer Therapy” (International Journal of Molecular Sciences, 2025).

Entries after “also recorded” stand apart in the source; their conditions may differ. Where two headings read alike, the source gives them in different places.

Experiment [1] deals with A549, HBL-100, HeLa, SW1573, T-47D, WiDr. Description: Antiproliferative SBR assay, panel of six tumor cell lines (summary statements). The format is cell-based. Particulars: Homo sapiens. The source says: (§1) The latter two represent multidrug-resistant cell lines.
A further experiment relates to HeLa (cervix). Nature of the experiment: Antiproliferative SBR assay (NCI protocol), HeLa. The format is cell-based, human. Particulars: Homo sapiens, HeLa; 48 h exposure, n = 3, mean ± SD.
Source text: as §1

Experiment [2] deals with A549 (non-small cell lung). Description: Antiproliferative SBR assay (NCI protocol), A549. The format is cell-based, human. The settings on record: Homo sapiens, A549; 48 h exposure, n = 3, mean ± SD.
Source text: as §1

A further experiment concerns HBL-100 (breast). Nature of the experiment: Antiproliferative SBR assay (NCI protocol), HBL-100. The format is cell-based, human. Particulars: Homo sapiens, HBL-100; 48 h exposure, n = 3, mean ± SD.
Source text: as §1

The next experiment deals with WiDr (colon). Description: Antiproliferative SBR assay (NCI protocol), WiDr. The experiment is classed as cell-based, human. Particulars: Homo sapiens, WiDr; 48 h exposure, n = 3, mean ± SD; multidrug-resistant line.
Source text: as §1

Another experiment concerns T-47D (breast). Description: Antiproliferative SBR assay (NCI protocol), T-47D. The experiment is classed as cell-based, human. Particulars: Homo sapiens, T47D; 48 h exposure, n = 3, mean ± SD; multidrug-resistant line.
Source text: as §1

Experiment [3] concerns SW1573 (non-small cell lung).
Experimental: The potential antiproliferative activity of sulfonamides synthesized in this study was evaluated in vitro using the SBR assay, following the US NCI protocol. A panel of six tumor cell lines was employed: A549 (non-small cell lung), HBL-100 (breast), HeLa (cervix), SW1573 (non-small cell lung), T-47D (breast), and WiDr (colon). The latter two represent multidrug-resistant cell lines.
Cells were maintained in culture in 60 mm cell culture dishes in growth medium (10 mL) and passaged twice weekly.
The antiproliferative activity of compounds was tested using our implementation of the protocol of the National Cancer Institute (NCI) of the USA. The following seeding densities (cells per well) were used: 2500 (A549, HBL-100, HeLa, and SW1573) and 5000 (T-47D and WiDr). Stock solutions of inhibitors (40 mM) were prepared in pure DMSO (400 times the maximum test concentration).
Another experiment concerns SW1573 cells. Nature of the experiment: Label-free continuous live cell imaging (holotomographic 3D microscopy). The format is cell-based, human. Particulars: 20 μM, 20 h. As to the method: Live imaging allows researchers to observe progressive cytostatic effects or cell death of treated cells, enabling the identification of several apoptotic hallmarks. In order to characterize the phenotypic effects of the compounds 4a and 5b on cancer cells, the evolution of the culture was monitored every 3 min using label-free holotomographic 3D microscopy. SW1573 cells were exposed to 4a and 5b at a concentration of 20 μM for 20 h (Supplementary Material, videos S1–S3). Untreated SW1573 cells (control) moved freely and divided throughout the experimental time frame.
The CX-A imaging platform microscope (Nanolive SA, Lausanne, Switzerland) was used to measure refractive indices, creating a holotomographic 3D image of the cells. SW1573 cells were seeded onto 35 mm cell culture imaging dishes (IBIDI GmbH, Gräfelfing, Germany) at a density of 50.000 cells/well. On the next day, treated cells were exposed to the test compounds right before the acquisition of the images. Image data were transferred to FIJI software v2.9.0 (NIH, USA) for image analysis. EVE software v2.2.1.2162 (Nanolive S.A., Tolochenaz, Switzerland)) was used for the analysis of the refractive indices and calculation of the phenotypic parameters.

A further experiment concerns the target human CA II (Homo sapiens, UniProt P00918). Description: Stopped-flow CO2 hydrase assay, CA II.
The next experiment addresses human CA IX (Homo sapiens, UniProt Q16790). Nature of the experiment: Stopped-flow CO2 hydrase assay, CA IX. The settings on record: for Selectivity Ratio I/IX: Ki CA I / Ki CA IX; for Selectivity Ratio II/IX: Ki CA II / Ki CA IX.
The target in the next experiment is human CA I (Homo sapiens, UniProt P00915). Nature of the experiment: Stopped-flow CO2 hydrase assay, CA I.
For a further experiment, the target named is human CA XII (Homo sapiens, UniProt O43570). Nature of the experiment: Stopped-flow CO2 hydrase assay, CA XII. The settings on record: for Selectivity Ratio I/XII: Ki CA I / Ki CA XII; for Selectivity Ratio II/XII: Ki CA II / Ki CA XII.
The nature of experiment [4]: Metal complexation assay by UV-Vis spectroscopy. The experiment is classed as physicochemical. The settings on record: DMSO, 25 °C. As for the experimental part: The ability of 5b, as a model compound, to complex metal cations associated with tumorigenesis (Na^+, K^+, Fe^2+, Fe^3+, Zn^2+, and Cu^2+) was analyzed using UV–Vis spectroscopy. To investigate this, UV–Vis spectra of solutions with varying ratios of 5b to metal chlorides (1:0, 4:1, 2:1, 1:1, 1:2, 1:5) were recorded. Additionally, a 1:2 ligand-to-metal spectrum was obtained after 72 h of incubation to account for potential slow complexation. […] For ZnCl2, only a weak effect was observed after incubation, and no significant changes were detected without incubation, regardless of the ligand-to-Zn^2+ ratio (Figure 6C).
The complexation of 5b with different metal chlorides (NaCl, KCl, FeCl2, FeCl3, ZnCl2, and CuCl2) was investigated using UV–Vis spectroscopy (Jasco V-360). The stock solutions of the salts (10^−2 M) and the ligand (2.5 mM) were prepared in pure DMSO and sonicated when necessary. To 20 µL of a 2.5 mM solution of 5b were added different aliquots of the metal chlorides solutions up to a total volume of 2 mL in quartz cuvettes. The following ligand–metal ratios were used: 1:0.25, 1:0.5, 1:1, 1:2, 1:5, and 1:10. The absorbance was monitored at 25 °C in the range 280–440 nm, either with or without incubation. A blank solution without 5b was also prepared for each concentration of the salt, and its spectrum was subtracted from the ligand–salt spectrum.

Where [5] appears, read: read-out: GI50 in five out of six cell lines.
[6] abbreviates: range over six tumor cell lines, read-out: GI50 range across all tested cell lines.

Sequence of human CA I (P00915 whole entry): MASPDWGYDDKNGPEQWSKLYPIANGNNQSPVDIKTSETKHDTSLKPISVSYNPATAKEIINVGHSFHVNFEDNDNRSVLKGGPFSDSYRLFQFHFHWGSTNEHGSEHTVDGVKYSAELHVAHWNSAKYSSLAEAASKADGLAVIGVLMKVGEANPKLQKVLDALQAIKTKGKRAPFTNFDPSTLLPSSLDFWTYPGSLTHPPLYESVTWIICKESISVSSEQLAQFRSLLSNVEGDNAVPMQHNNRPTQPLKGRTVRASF
Sequence of human CA XII (O43570 25-354): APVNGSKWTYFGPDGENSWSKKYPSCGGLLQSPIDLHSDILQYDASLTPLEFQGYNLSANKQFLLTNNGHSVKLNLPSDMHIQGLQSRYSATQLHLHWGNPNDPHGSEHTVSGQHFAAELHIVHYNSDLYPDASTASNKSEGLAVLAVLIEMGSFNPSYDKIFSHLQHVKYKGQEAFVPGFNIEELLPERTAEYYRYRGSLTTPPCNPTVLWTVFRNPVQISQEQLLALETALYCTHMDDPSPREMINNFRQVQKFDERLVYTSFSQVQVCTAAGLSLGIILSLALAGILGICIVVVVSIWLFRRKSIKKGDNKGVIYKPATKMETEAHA

For orientation: GI50 means the concentration that inhibits growth by half. Turning to `NS(=O)(=O)c1ccc(NC(=S)N/N=C/c2ccccn2)cc1` [Compound 5a, 1-(Pyridin-2′-ylmethylene)-4-(4″-sulfonamidophenyl)-3-thiosemicarbazone], the GI50 in [1] (setting [5]) is less than 10 µM; with HeLa (cervix), 5.2 ± 0.3 µM; in experiment [2], 18 ± 2 µM; in the experiment with HBL-100 (breast) it was 5.2 ± 2.2 µM; in the experiment on WiDr (colon), 3.8 ± 0.3 µM; in the experiment on T-47D (breast), 5.7 ± 2.1 µM. In addition, halving of growth in experiment [3] (GI50) required 4.2 ± 0.1 µM.

In general, Ki refers to a measure of affinity in units of concentration, obtained from inhibition or displacement. A higher Ki goes with lower affinity. On to `NS(=O)(=O)c1cccc(NC(=S)N/N=C/c2ccccn2)c1` [Compound 5b, 1-(Pyridin-2′-ylmethylene)-4-(3″-sulfonamidophenyl)-3-thiosemicarbazone], for which the GI50 is 4.5 to 10 µM in experiment [1] (setting [6]); less than 10 µM in experiment [1] (setting [5]); 5.8 ± 0.4 µM in the experiment on HeLa (cervix); 10 ± 2 µM in [2]; 7.8 ± 2 µM with HBL-100 (breast); 4.5 ± 0.6 µM with WiDr (colon). The GI50 in the experiment with T-47D (breast) was determined as 5.3 ± 0.7 µM; in [3], 7.1 ± 0.4 µM. Also, the “Phenotypic effects on cancer cells” value in the experiment on SW1573 cells is “cell division was retarded and apoptotic features were observed in some cells; also recorded: delayed tumor cell division and features indicative of apoptosis”. The Ki amounted to 2.5 nM on human CA II, 4.9 nM at human CA IX, 538 nM at human CA I and 5.6 nM at human CA XII. Besides, the “Selectivity Ratio I/IX” value on human CA IX turned out to be 109.8. Further, on human CA IX, the “Selectivity Ratio II/IX” value was found to be 0.49. In addition, the “Selectivity Ratio I/XII” value on human CA XII came out at 96.1. Also, the “Chelation of Cu2+” value in experiment [4] (CuCl2 titration) is reported as “efficiently chelated; also recorded: efficient ligand for chelating; also recorded: effective chelation”. In addition, the “Chelation of Fe2+” value in experiment [4] (FeCl2 titration) is on record as “efficiently chelated; also recorded: to a lesser extent; also recorded: effective chelation”. Besides, in [4] (FeCl3 titration), the “Chelation of Fe3+” value is recorded as “efficiently chelated; also recorded: to a lesser extent”. The “Chelation of K+” value in [4] (KCl titration) was “does not chelate”. In addition, in experiment [4] (NaCl titration), the “Chelation of Na+” value is “does not chelate”. Moreover, the “Chelation of Zn2+” value in experiment [4] (ZnCl2 titration) is reported as “notably weaker”.

Turning to `COc1ccc(/C=N/NC(=S)NCCc2ccc(S(N)(=O)=O)cc2)cc1` [Compound 4m, 1-(4′-Methoxyphenylmethylene)-4-[2″-(4‴-sulfonamido)phenyl]ethyl-3-thiosemicarbazone], the GI50 in the experiment with HeLa (cervix) was greater than 100 µM; in [2] it was 97 ± 4 µM; with HBL-100 (breast) it was greater than 100 µM; in the experiment on WiDr (colon) it was greater than 100 µM; with T-47D (breast), greater than 100 µM; in [3], greater than 100 µM. Further, the inhibition constant (Ki) on human CA II amounted to 321 nM; at human CA IX it was 164 nM; on human CA I it was 3480 nM; at human CA XII it was 35 nM. Besides, the “Selectivity Ratio I/IX” value on human CA IX came out at 21.2. Moreover, the “Selectivity Ratio II/IX” value at human CA IX was 2.0. Moreover, the “Selectivity Ratio I/XII” value on human CA XII is listed as 99.4. On human CA XII, the “Selectivity Ratio II/XII” value stood at 9.2.

`NS(=O)(=O)c1ccc(CCNC(=S)N/N=C/c2ccccn2)cc1` [Compound 5c, 1-(Pyridin-2′-ylmethylene)-4-[2″-(4‴-sulfonamidophenyl)]ethyl-3-thiosemicarbazone]: the GI50 in the experiment with HeLa (cervix) is greater than 100 µM; in experiment [2], 37 ± 11 µM; in the experiment on HBL-100 (breast), greater than 100 µM; in the experiment with WiDr (colon), greater than 100 µM; with T-47D (breast), greater than 100 µM; in experiment [3], greater than 100 µM. The Ki on human CA II worked out at 83.9 nM; at human CA IX, 28.5 nM; on human CA I, 270 nM; at human CA XII, 9.3 nM. Further, at human CA IX, the “Selectivity Ratio I/IX” value came out at 9.5. Besides, at human CA IX, the “Selectivity Ratio II/IX” value came out at 2.9. Besides, on human CA XII, the “Selectivity Ratio I/XII” value turned out to be 29.0. The “Selectivity Ratio II/XII” value on human CA XII is given as 9.0.

For `NS(=O)(=O)c1ccc(CCNC(=S)N/N=C/c2ccccc2)cc1` [Compound 4l, 1-Phenylmethylene-4-[2′-(4″-sulfonamido)phenyl]ethyl-3-thiosemicarbazone], the GI50 in the experiment on HeLa (cervix) is greater than 100 µM; in experiment [2], 90 ± 14 µM; in the experiment with HBL-100 (breast), greater than 100 µM; with WiDr (colon), 90 ± 14 µM; in the experiment with T-47D (breast), greater than 100 µM; in experiment [3], 99 ± 1 µM. In addition, the Ki was 70.2 nM at human CA II, 30.8 nM on human CA IX, 568 nM on human CA I and 9.12 nM on human CA XII. In addition, at human CA IX, the “Selectivity Ratio I/IX” value was 18.4. On human CA IX, the “Selectivity Ratio II/IX” value was found to be 2.3. Besides, at human CA XII, the “Selectivity Ratio I/XII” value is on record as 62.3. The “Selectivity Ratio II/XII” value at human CA XII is listed as 7.7.

On to `NNC(=S)NCCc1ccc(S(N)(=O)=O)cc1` [Compound 3c, 4-N-[2′-(4″-Sulfonamido)phenyl]ethyl-3-thiosemicarbazide], for which the GI50 (with HeLa (cervix); in experiment [2]; in the experiment with HBL-100 (breast); in the experiment on WiDr (colon); with T-47D (breast); in [3]) was greater than 100 µM each time. Also, the Ki at human CA II is 8.51 nM; at human CA IX, 13 nM; on human CA I, 79 nM; on human CA XII, 5.02 nM. Further, the “Selectivity Ratio I/IX” value on human CA IX was found to be 6.1. In addition, the “Selectivity Ratio II/IX” value at human CA IX amounted to 0.65. Besides, the “Selectivity Ratio I/XII” value on human CA XII came to 15.7. The “Selectivity Ratio II/XII” value at human CA XII is reported as 1.7.

For the molecule `NS(=O)(=O)c1ccc(NC(=S)N/N=C/c2ccccc2)cc1` [Compound 4a, 1-Phenylmethylene-4-(4′-sulfonamidophenyl)-3-thiosemicarbazone], the GI50 was 2.3 to 5.1 µM in [1] (setting [6]); 2.3 ± 0.2 µM with HeLa (cervix); 5.1 ± 3.7 µM in experiment [2]; 3 ± 1.6 µM in the experiment with HBL-100 (breast); 4.5 ± 1.4 µM in the experiment with WiDr (colon); 2.6 ± 0.1 µM in the experiment with T-47D (breast). In [3], this molecule came in with a GI50 of 2.9 ± 1.4 µM. For the same molecule, the “Phenotypic effects on cancer cells” value in the experiment with SW1573 cells was “cell division was retarded and apoptotic features were observed in some cells”.
